Several values for one entry are separate records, joined by “and”; a condition that tells them apart may be missing. Identical values can stand only once.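 Values below derive from 48-hour exposures of cells grown in 96-well plates, with endpoints linearly interpolated between the two concentrations bracketing the appropriate inhibition level. The concentration for 50% growth inhibition is given as GI50. TGI is the concentration that stops growth completely.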
Tests used:
Experiment in all cases: NCI tumour cell line growth inhibition, 48 h
DLD-1 colon = tested on: DLD-1 colon
DMS 114 small cell lung = tested on: DMS 114 small cell lung
KM20L2 colon = tested on: KM20L2 colon
LXFL 529 NSCLC = tested on: LXFL 529 NSCLC
M19-MEL melanoma = tested on: M19-MEL melanoma
RXF-631 renal = tested on: RXF-631 renal
BT-549 breast = tested on: BT-549 breast
MDA-N = tested on: MDA-N
P388 leukemia = tested on: P388 leukemia
P388/ADR leukemia = tested on: P388/ADR leukemia
PC-3 prostate = tested on: PC-3 prostate
SN12K1 renal = tested on: SN12K1 renal

CNC(=O)NCCCCC(NC(C)=O)C(=O)NCc1ccccc1 (stereo not drawn)
TGI (DLD-1 colon): > 100 µM | TGI (DMS 114 small cell lung): > 100 µM | TGI (KM20L2 colon): > 100 µM | TGI (LXFL 529 NSCLC): > 100 µM | TGI (M19-MEL melanoma): > 100 µM | TGI (RXF-631 renal): > 100 µM

COC(OC)c1cccnc1C
TGI (DLD-1 colon): > 100 µM | TGI (DMS 114 small cell lung): > 100 µM | TGI (KM20L2 colon): > 100 µM | TGI (LXFL 529 NSCLC): > 100 µM | TGI (M19-MEL melanoma): > 100 µM | TGI (RXF-631 renal): > 100 µM

COc1c2c(c(O)c3c4c(c(C)cc13)C1OC3(C(OC)OC5CC(C)(O)C(OC6CC(C)(O)C(O)C(C)O6)C(C)O5)OC1C(OC)(O4)C31CO1)C(=O)C(O)CC2OC1CC(C)(O)C(OC(C)=O)C(C)O1 (stereo not drawn)
TGI (DLD-1 colon): 4.17 µM | TGI (DMS 114 small cell lung): < 0.01 µM | TGI (LXFL 529 NSCLC): 0.0889 µM | TGI (M19-MEL melanoma): < 0.01 µM | TGI (RXF-631 renal): 4.48 µM

Cc1c(-c2ccc(-c3ccccc3F)cc2)nc2ccc(F)cc2c1C(=O)O
GI50 (BT-549 breast): 17.4 µM and 57.4 µM | TGI (BT-549 breast): 137 µM and 849 µM | GI50 (DLD-1 colon): 1.58 µM | TGI (DLD-1 colon): 146 µM and 1040 µM | GI50 (KM20L2 colon): 1.12 µM | TGI (KM20L2 colon): 170 µM and 171 µM | TGI (M19-MEL melanoma): 153 µM | GI50 (MDA-N): 0.979 µM and 0.762 µM | GI50 (P388 leukemia): 0.5 µM | TGI (P388 leukemia): 89.8 µM and 106 µM | GI50 (P388/ADR leukemia): 0.5 µM | TGI (P388/ADR leukemia): 60 µM and 125 µM | GI50 (PC-3 prostate): 0.27 µM and 0.75 µM | TGI (PC-3 prostate): 103 µM and 429 µM | TGI (SN12K1 renal): 70.9 µM

O=C(Nc1ccccc1)N1C(c2ccccc2)=N[C@@H](c2ccccc2)[C@@H]1c1ccccc1
TGI (DLD-1 colon): 35.6 µM | TGI (DMS 114 small cell lung): 29.9 µM | TGI (KM20L2 colon): 37.3 µM | TGI (LXFL 529 NSCLC): 31.6 µM | TGI (M19-MEL melanoma): 38.7 µM | TGI (RXF-631 renal): 79 µM

COc1ccccc1/C=C(\NC(=O)c1ccccc1)c1nc2ccccc2[nH]1
TGI (DLD-1 colon): > 100 µM | TGI (DMS 114 small cell lung): > 100 µM | TGI (KM20L2 colon): > 100 µM | TGI (LXFL 529 NSCLC): 96.9 µM | TGI (M19-MEL melanoma): > 100 µM | TGI (RXF-631 renal): > 100 µM

O=S1(=O)CCC2=CC(C(F)(F)F)=CC(C(F)(F)F)=CN21
TGI (BT-549 breast): 6.1 µM | TGI (DLD-1 colon): 1.77 µM | TGI (DMS 114 small cell lung): 3.32 µM | TGI (KM20L2 colon): 5.25 µM | TGI (LXFL 529 NSCLC): 1.6 µM | TGI (M19-MEL melanoma): 3.08 µM | TGI (MDA-N): 35.7 µM | TGI (PC-3 prostate): 5.91 µM | TGI (RXF-631 renal): 3.89 µM

Reference: PubChem BioAssay (NCI)
